Test: Toxicities attributed to Cediranib
Assay type: in vivo, human

## COc1cc2c(Oc3ccc4[nH]c(C)cc4c3F)ncnc2cc1OCCCN1CCCC1 [cediranib, Cediranib]
All grades
  diarrhea, number of patients: Thirty-two
Grade 1 TOX
  Abdominal pain, events (patients): 5(5)
  Acidosis, events (patients): 1(1)
  Alanine aminotransferase increased, events (patients): 41(22)
  Alkaline phosphatase increased, events (patients): 2(2)
  Anal mucositis, events (patients): 1(1)
  Anal pain, events (patients): 1(1)
  Anemia, events (patients): 2(2)
  Anorexia, events (patients): 8(8)
  Aspartate aminotransferase increased, events (patients): 37(19)
  Back pain, events (patients): 1(1)
  Blood bilirubin increased, events (patients): 13(7)
  Bone pain, events (patients): 1(1)
  Cardiac troponin I increased, events (patients): 1(1)
  Cholesterol high, events (patients): 1(1)
  Chronic kidney disease, events (patients): 1(1)
  Constipation, events (patients): 5(2)
  Cough, events (patients): 1(1)
  Creatinine increased, events (patients): 1(1)
  Dehydration, events (patients): 1(1)
  Depression, events (patients): 1(1)
  Diarrhea, events (patients): 43(30)
  Dizziness, events (patients): 3(3)
  Dry mouth, events (patients): 1(1)
  Dry skin, events (patients): 1(1)
  Dyspepsia, events (patients): 3(3)
  Edema face, events (patients): 1(1)
  Edema limbs, events (patients): 1(1)
  Endocrine disorders - Other, specify, events (patients): 1(1)
  Epistaxis, events (patients): 5(4)
  Fatigue, events (patients): 7(7)
  Fecal incontinence, events (patients): 1(1)
  Fever, events (patients): 1(1)
  GGT increased, events (patients): 1(1)
  Gastritis, events (patients): 1(1)
  Gastrointestinal disorders - Other, specify, events (patients): 1(1)
  Headache, events (patients): 5(4)
  Hematuria, events (patients): 5(3)
  Hemoglobin increased, events (patients): 6(2)
  Hoarseness, events (patients): 1(1)
  Hypercalcemia, events (patients): 3(2)
  Hyperglycemia, events (patients): 7(6)
  Hyperkalemia, events (patients): 2(2)
  Hypermagnesemia, events (patients): 7(5)
  Hypernatremia, events (patients): 5(4)
  Hypertension, events (patients): 19(13)
  Hyperthyroidism, events (patients): 2(2)
  Hypoalbuminemia, events (patients): 20(13)
  Hypocalcemia, events (patients): 16(8)
  Hypoglycemia, events (patients): 2(2)
  Hypokalemia, events (patients): 14(11)
  Hypomagnesemia, events (patients): 6(4)
  Hyponatremia, events (patients): 9(5)
  Hypophosphatemia, events (patients): 10(8)
  Hypothyroidism, events (patients): 10(10)
  INR increased, events (patients): 1(1)
  Investigations - Other, specify, events (patients): 2(2)
  Joint effusion, events (patients): 1(1)
  Leukoencephalopathy, events (patients): 1(1)
  Lymphocyte count decreased, events (patients): 11(8)
  Malaise, events (patients): 2(1)
  Mucositis oral, events (patients): 1(1)
  Myalgia, events (patients): 1(1)
  Nausea, events (patients): 15(10)
  Neutrophil count decreased, events (patients): 11(8)
  Non-cardiac chest pain, events (patients): 1(1)
  Oral pain, events (patients): 2(2)
  Pain in extremity, events (patients): 3(3)
  Palmar-plantar erythrodysesthesia syndrome, events (patients): 4(4)
  Platelet count decreased, events (patients): 22(17)
  Proteinuria, events (patients): 20(13)
  Rash acneiform, events (patients): 2(2)
  Rash maculo-papular, events (patients): 5(5)
  Rectal pain, events (patients): 1(1)
  Renal and urinary disorders - Other, specify, events (patients): 1(1)
  Serum amylase increased, events (patients): 1(1)
  Skin and subcutaneous tissue disorders - Other, specify, events (patients): 1(1)
  Stomach pain, events (patients): 2(2)
  Urinary frequency, events (patients): 1(1)
  Urinary retention, events (patients): 1(1)
  Vascular disorders - Other, specify, events (patients): 2(2)
  Voice alteration, events (patients): 2(2)
  Vomiting, events (patients): 23(12)
  Weight loss, events (patients): 1(1)
  White blood cell decreased, events (patients): 13(11)
Grade 2 TOX
  Abdominal pain, events (patients): 5(5)
  Alanine aminotransferase increased, events (patients): 17(9)
  Anorexia, events (patients): 5(5)
  Arthralgia, events (patients): 1(1)
  Aspartate aminotransferase increased, events (patients): 4(4)
  Back pain, events (patients): 1(1)
  Bone pain, events (patients): 1(1)
  Constipation, events (patients): 1(1)
  Dehydration, events (patients): 1(1)
  Diarrhea, events (patients): 16(11)
  Dizziness, events (patients): 2(1)
  Fatigue, events (patients): 9(9)
  Flushing, events (patients): 3(1)
  Gastrointestinal disorders - Other, specify, events (patients): 1(1)
  Headache, events (patients): 3(3)
  Hyperglycemia, events (patients): 2(2)
  Hypertension, events (patients): 28(28)
  Hypoalbuminemia, events (patients): 6(4)
  Hypocalcemia, events (patients): 1(1)
  Hypoglycemia, events (patients): 1(1)
  Hypomagnesemia, events (patients): 1(1)
  Hypophosphatemia, events (patients): 4(2)
  Hypothyroidism, events (patients): 10(10)
  Hypoxia, events (patients): 1(1)
  Intracranial hemorrhage, events (patients): 4(4)
  Lipase increased, events (patients): 1(1)
  Lymphocyte count decreased, events (patients): 7(5)
  Mucositis oral, events (patients): 2(2)
  Myalgia, events (patients): 1(1)
  Nausea, events (patients): 3(3)
  Neutrophil count decreased, events (patients): 7(4)
  Pain in extremity, events (patients): 1(1)
  Pain, events (patients): 1(1)
  Palmar-plantar erythrodysesthesia syndrome, events (patients): 10(7)
  Pericardial effusion, events (patients): 1(1)
  Peripheral motor neuropathy, events (patients): 1(1)
  Platelet count decreased, events (patients): 3(3)
  Pleural effusion, events (patients): 1(1)
  Proteinuria, events (patients): 13(12)
  Respiratory, thoracic and mediastinal disorders - Other, specify, events (patients): 1(1)
  Reversible posterior leukoencephalopathy syndrome, events (patients): 1(1)
  Seizure, events (patients): 1(1)
  Skin ulceration, events (patients): 1(1)
  Vomiting, events (patients): 3(3)
  Weight loss, events (patients): 1(1)
  White blood cell decreased, events (patients): 4(2)
Grade 3 TOX
  Alanine aminotransferase increased, events (patients): 6(5)
  Anemia, events (patients): 1(1)
  Aspartate aminotransferase increased, events (patients): 1(1)
  Blurred vision, events (patients): 1(1)
  Capillary leak syndrome, events (patients): 1(1)
  Chest wall pain, events (patients): 1(1)
  Confusion, events (patients): 1(1)
  Dehydration, events (patients): 2(2)
  Depressed level of consciousness, events (patients): 1(1)
  Diarrhea, events (patients): 2(2)
  Dysphasia, events (patients): 1(1)
  Enterocolitis, events (patients): 1(1)

From publication PMC4561207 (Child's nervous system : ChNS : official journal of the …, 2015)
